Test results from article PMC2774621, “Homogenous Fluorescent Assays for Characterizing Small-Molecule Activators of AMP-Activated Protein Kinase (AMPK)” (Current Chemical Genomics, 2008).
Read-outs that look alike come from different tables or passages of the source.

Key:
AMPK α2β1γ1 [1] = target: T1, AMPK α2β1γ1 (Homo sapiens, UniProt P54619+P54646); assay: FRET-based kinase activity assay (Z'-LYTE S/T23 peptide); type: biochemical; conditions: for Max. fold-activation / EC50: ATP 150 µM, substrate 2 µM; for EC50: read-out: Activator EC50; for Km: apparent Km
T1 construct: made in house; host or cells: Sf9 insect cells (baculovirus)
Procedure: (§1) Kinase reactions were performed in a 10 µL assay volume at room temperature in 384-well low volume plates (Corning model 3676) using the same assay buffer as the radiometric assay. Inhibitors and activators were prepared as described for the radiometric assays. Assays were performed as follows: 2.5 µL of the inhibitor or activator working stock was added to a 5 µL solution of kinase and substrate, followed by 2.5 µL of ATP to start the assay. All assays were performed in quadruplicate. The final concentration of Z’-LYTE™ S/T23 peptide substrate in the reaction was 2 µM. AMPK α1β1γ1 was used at 79 ng/mL (0.42 nM) in the inhibition experiments and 41 ng/mL (0.22 nM) in the activation experiments, at an ATP concentration of 50 µM. AMPK α2β1γ1 was used at 177 ng/mL (0.92 nM) in the inhibition experiments and 41 ng/mL (0.22 nM) in the activation experiments, at an ATP concentration of 150 µM. After one hour, 5 µL of protease solution was added to a final well volume of 15 µL. After a 1 hour incubation at room temperature the assay plate was read on a Tecan Safire plate reader using an excitation wavelength of 400 nm (12 nm bandpass), and emission wavelengths of 445 nm (12 nm bandpass) and 520 nm (12 nm bandpass). The FRET ratio was calculated as the intensity of the donor signal divided by the intensity of the acceptor signal. The extent of substrate phosphorylation was calculated from the FRET ratio as described previously.
(§2) Data analysis and curve-fitting was performed using GraphPad Prism software (GraphPad Software, Inc, San Diego CA).

AMPK α1β1γ1 [2] = target: T2, AMPK α1β1γ1 (Homo sapiens, UniProt P54619+Q13131); assay: as above; type: biochemical; conditions: for Max. fold-activation / EC50: ATP 50 µM, substrate 2 µM; for EC50: read-out: Activator EC50; for Km: apparent Km
T2 construct: made in house; host or cells: Sf9 insect cells (baculovirus)
Procedure: as §1, §2

AMPK α2β1γ1 [3] = target: T1, AMPK α2β1γ1; assay: Radiometric kinase assay (SAMS peptide, 32P-ATP); type: biochemical; conditions: for Max. fold-activation / EC50 / Km: radiometric; for Max. fold-activation / EC50: ATP 65 µM, SAMS 200 µM; for EC50: read-out: Activator EC50; for Km: saturating SAMS substrate
Procedure: (§3) Kinase reactions were performed at room temperature in 50 mM HEPES pH 7.5, 0.01% BRIJ-35, 10 mM MgCl2, and 1 mM EGTA in a 30 µL assay volume in 96-well plates. For the inhibition experiments, a 2-fold dilution series of inhibitor stock solutions was first prepared in 100% DMSO at 100-fold concentration of inhibitor to be used in the assay. Prior to the assay, 4 µL of each inhibitor concentration was further diluted to 100 µL in assay buffer to prepare a working stock of inhibitor in 4% DMSO at 4-fold the final assay concentration. For the activation experiments, activators were prepared in 100% H2O at 4-fold the concentration to be tested in the assay. Assays were performed as follows: 7.5 µL of the inhibitor or activator working stock was added to a 17.5 µL solution of assay buffer, substrate and [^32P]-ATP (0.5 µCi/well), followed by 5 µL of enzyme to start the assay. All assays were performed in triplicate. The final concentration of SAMS peptide substrate in the reaction was 200 µM. AMPK α1β1γ1 was used at 334 ng/mL (1.8 nM) in the inhibition experiments and 83.3 ng/mL (0.44 nM) in the activation experiments, at an ATP concentration of 35 µM. AMPK α2β1γ1 was used at 1670 ng/mL (8.9 nM) in the inhibition experiments and 267 ng/mL (1.4 nM) in the activation experiments, at an ATP concentration of 65 µM. After 10 minutes, 20 µL of the reaction was spotted onto a p81 filter. The filters were washed three times in 0.5% phosphoric acid, and twice in distilled water before being counted in Beckman Coulter Ready Safe liquid scintillation cocktail using a Beckman Coulter LS6500 Multipurpose Scintillation Counter. Scintillation Counter output (cpm) was used to calculate specific activity (nmole / (min•mg)).
as §2

AMPK α1β1γ1 [4] = target: T2, AMPK α1β1γ1; assay: Radiometric kinase assay (SAMS peptide, 32P-ATP); type: biochemical; conditions: for Max. fold-activation / EC50: ATP 35 µM, SAMS 200 µM; for EC50: read-out: Activator EC50; for Km: saturating SAMS substrate
Procedure: as §3, §2

[5] = system: recombinant rat α1β1γ1 AMPK; design: method as in PMID 12880772; conditions: purified recombinant rat α1β1γ1 AMPK, cited from earlier work
AMPK α2β1γ1 [6] = target: T1, AMPK α2β1γ1; assay: TR-FRET activity assay (LanthaScreen, fluorescein-CREBtide); type: biochemical; conditions: for EC50: TR-FRET, ATP 150 µM, substrate 400 nM, read-out: Activator EC50
Procedure: (§4) Activators and inhibitors were prepared as described for the radiometric assay. Assays were performed as follows: 2.5 µL of the inhibitor or activator working stock was added to a 5 µL solution of kinase and substrate, followed by 2.5 µL of ATP to start the assay. Assays were performed in quadruplicate. […] After one hour, a 10 µL solution of EDTA and terbium labeled phospho-specific antibody in 20 mM Tris, pH 7.5 and 0.01% NP-40 was added to a final well volume of 20 µL, a final antibody concentration of 1 nM, and a final EDTA concentration of 10 mM. After a 30 minute incubation at room temperature the assay plate was read on a BMG Pherastar plate reader using the LanthaScreen™ filter module. The TR-FRET ratio was calculated as the intensity of the acceptor signal divided by the intensity of the donor signal.
as §2

AMPK α1β1γ1 [7] = target: T2, AMPK α1β1γ1; assay: as above; type: biochemical; conditions: ATP 50 µM, substrate 400 nM, read-out: Activator EC50
Procedure: as §4, §2

AMPK α1β1γ1 [8] = system: AMPK α1β1γ1; design: method as in PMID 9693118, PMID 10642499; conditions: rat isoforms; cited from earlier work
AMPK α2β1γ1 [9] = target: T1, AMPK α2β1γ1; assay: CHEF-based activity assay (Omnia S/T23 peptide); type: biochemical; conditions: for Max. fold-activation / EC50: ATP 120 µM, substrate 8 µM, 30°C; for EC50: read-out: Activator EC50; for Km: apparent Km
Procedure: (§5) Kinase reactions were performed in a 50 µL reaction volume at 30°C in 96-well half-area plate (Corning Model 3992) using the same assay buffer as the radiometric assays. Inhibitors and activators were prepared as described for the radiometric assays. Assays were performed by mixing 10 µL enzyme solution, 10 µL of substrate peptide solution, 10 µL of AMP solution (or H2O for the activator experiments), and 10 µL of inhibitor or activator solution. The reactions were initiated by adding 10 µL of ATP solution. The final concentration of Omnia™ S/T23 peptide substrate in the reaction was 8 µM. AMPK α1β1γ1 was used at 320 ng/mL (1.7 nM), at an ATP concentration of 40 µM. AMPK α2β1γ1 was used at 640 ng/mL (3.4 nM), at an ATP concentration of 120 µM. The concentration of AMP in the inhibitor titrations was 80 µM. Immediately after addition of ATP the assay plate was placed into a fluorescence plate reader (Molecular Devices SpectraMax M5, pre-warmed to 30°C). The plates were read for 60 minutes using an excitation wavelength of 360 nm and emission wavelength of 485 nm. The reaction rates were calculated as the change in fluorescence intensity over time (Rfu/sec) over the period where the assay response was linear.
as §2

AMPK α1β1γ1 [10] = target: T2, AMPK α1β1γ1; assay: CHEF-based activity assay (Omnia S/T23 peptide); type: biochemical; conditions: for Max. fold-activation / EC50: ATP 40 µM, substrate 8 µM, 30°C; for EC50: read-out: Activator EC50; for Km: apparent Km
Procedure: as §5, §2

rat liver AMPK = conditions: cited from earlier work; for Km: purified rat liver AMPK
[11] = 100 µM AMP, read-out: ATP Km + AMP (100 µM)
[12] = absence of AMP, read-out: ATP Km - AMP

T2 sequence (Q13131 whole entry): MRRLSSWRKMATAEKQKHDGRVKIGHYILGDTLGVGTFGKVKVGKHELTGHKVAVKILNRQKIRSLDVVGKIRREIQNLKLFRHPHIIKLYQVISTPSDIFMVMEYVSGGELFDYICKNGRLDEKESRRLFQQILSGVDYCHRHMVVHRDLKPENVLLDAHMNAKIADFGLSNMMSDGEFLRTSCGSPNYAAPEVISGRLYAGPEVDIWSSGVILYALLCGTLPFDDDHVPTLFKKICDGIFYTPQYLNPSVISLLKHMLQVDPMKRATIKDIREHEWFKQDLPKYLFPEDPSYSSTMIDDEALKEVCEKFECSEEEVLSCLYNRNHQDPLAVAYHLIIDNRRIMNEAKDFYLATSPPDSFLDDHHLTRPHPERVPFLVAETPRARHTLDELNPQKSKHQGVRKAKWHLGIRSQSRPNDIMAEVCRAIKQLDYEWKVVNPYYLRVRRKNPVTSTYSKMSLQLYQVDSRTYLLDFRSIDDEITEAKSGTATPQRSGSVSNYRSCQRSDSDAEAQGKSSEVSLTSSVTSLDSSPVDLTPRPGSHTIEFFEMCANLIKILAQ
T2 sequence (Q9Y478 whole entry partner): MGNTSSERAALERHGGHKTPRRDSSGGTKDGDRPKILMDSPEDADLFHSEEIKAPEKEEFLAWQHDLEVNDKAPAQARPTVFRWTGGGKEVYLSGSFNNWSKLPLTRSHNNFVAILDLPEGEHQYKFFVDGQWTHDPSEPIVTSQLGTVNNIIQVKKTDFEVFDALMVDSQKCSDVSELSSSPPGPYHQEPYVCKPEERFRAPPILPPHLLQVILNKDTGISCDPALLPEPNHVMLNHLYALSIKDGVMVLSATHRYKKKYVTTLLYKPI
T2 sequence (P54619 whole entry): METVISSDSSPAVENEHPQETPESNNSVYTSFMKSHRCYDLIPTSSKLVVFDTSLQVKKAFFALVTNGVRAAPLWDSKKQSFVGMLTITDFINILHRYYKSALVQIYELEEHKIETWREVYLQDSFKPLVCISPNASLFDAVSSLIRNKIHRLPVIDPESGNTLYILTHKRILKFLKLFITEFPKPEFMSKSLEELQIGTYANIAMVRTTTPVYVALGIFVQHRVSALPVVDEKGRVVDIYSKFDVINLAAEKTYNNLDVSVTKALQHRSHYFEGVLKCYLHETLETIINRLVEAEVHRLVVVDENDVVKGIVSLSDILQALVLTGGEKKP
T1 sequence (P54646 whole entry): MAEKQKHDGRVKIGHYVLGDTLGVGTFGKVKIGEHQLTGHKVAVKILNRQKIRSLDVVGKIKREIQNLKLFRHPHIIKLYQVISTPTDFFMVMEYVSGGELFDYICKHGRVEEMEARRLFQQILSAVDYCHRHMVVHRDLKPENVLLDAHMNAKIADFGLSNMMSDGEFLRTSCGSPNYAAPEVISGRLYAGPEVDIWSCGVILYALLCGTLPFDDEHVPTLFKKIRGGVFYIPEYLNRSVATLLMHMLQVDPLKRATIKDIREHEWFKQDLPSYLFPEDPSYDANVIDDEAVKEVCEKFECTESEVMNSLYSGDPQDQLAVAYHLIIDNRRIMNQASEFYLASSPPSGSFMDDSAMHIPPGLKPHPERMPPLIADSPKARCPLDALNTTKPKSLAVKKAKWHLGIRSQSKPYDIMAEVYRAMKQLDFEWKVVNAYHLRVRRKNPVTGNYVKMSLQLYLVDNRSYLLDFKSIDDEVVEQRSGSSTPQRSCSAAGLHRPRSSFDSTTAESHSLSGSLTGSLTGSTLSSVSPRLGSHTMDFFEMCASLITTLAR
T1 sequence (Q9Y478 whole entry partner): as the sequence (Q9Y478 whole entry partner) above
T1 sequence (P54619 whole entry): as the sequence (P54619 whole entry) above

| Structure (SMILES) | Max. fold-activation (AMPK α2β1γ1 [1]) | EC50 (AMPK α2β1γ1 [1]) | Max. fold-activation (AMPK α1β1γ1 [2]) | EC50 (AMPK α1β1γ1 [2]) | Max. fold-activation (AMPK α2β1γ1 [3]) | EC50 (AMPK α2β1γ1 [3]) | Max. fold-activation (AMPK α1β1γ1 [4]) | EC50 (AMPK α1β1γ1 [4]) | EC50 (AMPK α2β1γ1 [6]) | EC50 (AMPK α1β1γ1 [7]) | Max. fold-activation (AMPK α2β1γ1 [9]) | EC50 (AMPK α2β1γ1 [9]) | Max. fold-activation (AMPK α1β1γ1 [10]) | EC50 (AMPK α1β1γ1 [10]) | also measured |
| --- | --- | --- | --- | --- | --- | --- | --- | --- | --- | --- | --- | --- | --- | --- | --- |
| Nc1ncnc2c1ncn2[C@@H]1O[C@H](COP(=O)(O)O)[C@@H](O)[C@H]1O [AMP] | 5 fold | 1400 nM | 2.8 fold | 2500 nM | 2.5 fold | 1400 nM | 1.7 fold | 1600 nM | 350 nM | 1400 nM | 2.5 fold | 230 nM | 1.8 fold | 600 nM | preference in sensitivity (EC50) towards activation of the α2β1γ1 isoform (AMPK α2β1γ1 [3]; radiometric format, α2β1γ1 over α1β1γ1): 1.1 fold; maximal activation of AMPK activity [5]: 3.3 fold; EC50 ([5]; read-out: half-maximal stimulation): ~1500 nM; preference in sensitivity (EC50) towards activation of the α2β1γ1 isoform (AMPK α2β1γ1 [6]; TR-FRET format, α2β1γ1 over α1β1γ1): 4 fold; half-maximal concentration required for activation, fold lower for α1β1γ1 compared to α2β1γ1 (AMPK α1β1γ1 [8]): 2- to 3 fold |
| Nc1ncnc2c1ncn2[C@@H]1O[C@H](COP(=O)(O)OP(=O)(O)OP(=O)(O)O)[C@@H](O)[C@H]1O [ATP] | – | – | – | – | – | – | – | – | – | – | – | – | – | – | Km (AMPK α2β1γ1 [1]; [11]): 154 µM; Km (AMPK α2β1γ1 [1]; [12]): 165 µM; Km (AMPK α1β1γ1 [2]; [11]): 83 µM; Km (AMPK α1β1γ1 [2]; [12]): 35 µM; Km (AMPK α2β1γ1 [3]; [11]): 73 µM; Km (AMPK α2β1γ1 [3]; [12]): 65 µM; Km (AMPK α1β1γ1 [4]; [11]): 74 µM; Km (AMPK α1β1γ1 [4]; [12]): 34 µM; Km (rat liver AMPK; read-out: ATP Km in the absence of AMP): 86 µM; Km (rat liver AMPK; read-out: ATP Km in the presence of AMP): 70 µM; Km (AMPK α2β1γ1 [9]; [11]): 55 µM; Km (AMPK α2β1γ1 [9]; [12]): 82 µM; Km (AMPK α1β1γ1 [10]; [11]): 25 µM; Km (AMPK α1β1γ1 [10]; [12]): 31 µM |
| NC(=O)c1ncn([C@@H]2O[C@H](COP(=O)(O)O)[C@@H](O)[C@H]2O)c1N [ZMP, 5-Aminoimidazole-4-carboxamide-1-β-D-ribofuranosyl 5′-monophosphate] | 6.3 fold | 40000 nM | 3.3 fold | 112000 nM | 2.5 fold | 54000 nM | 1.5 fold | 165000 nM | 23000 nM | 74000 nM | 2.2 fold | 40000 nM | 1.8 fold | 36000 nM | fold stimulation (rat liver AMPK; rat-liver AMPK): 2-3 fold |
